Data taken from ChEMBL document CHEMBL4346717, “1,2,4-Triazole-quinoline/quinolone hybrids as potential anti-bacterial agents” (Eur J Med Chem, 2019).
In brackets after ≈: the same amount, converted by molar mass.

Assays:
Assay type in all cases: functional
Escherichia coli [1] = assay: Antibacterial activity against Escherichia coli
Pseudomonas aeruginosa [2] = assay: Antibacterial activity against Pseudomonas aeruginosa
Staphylococcus aureus [3] = assay: Antibacterial activity against Staphylococcus aureus
Staphylococcus aureus [4] = assay: Antibacterial activity against Staphylococcus aureus after 3 to 7 days by cup diffusion method
Bacillus subtilis [5] = assay: Antibacterial activity against Bacillus subtilis after 3 to 7 days by cup diffusion method
Escherichia coli [6] = assay: Antibacterial activity against Escherichia coli after 3 to 7 days by cup diffusion method
Pseudomonas aeruginosa [7] = assay: Antibacterial activity against Pseudomonas aeruginosa after 3 to 7 days by cup diffusion method
Mycolicibacterium phlei [8] = assay: Antibacterial activity against Mycobacterium phlei clinical isolate after 3 to 7 days by cup diffusion method
[9] = system: Aggregatibacter actinomycetemcomitans; assay: Antibacterial activity against Aggregatibacter actinomycetemcomitans ATCC 29524 after 3 to 7 days by cup diffusion method
Staphylococcus aureus [10] = assay: Antibacterial activity against Staphylococcus aureus assessed as zone of inhibition at 10 mg/ml after 3 to 7 days by cup diffusion method; details: read-out: IZ
Bacillus subtilis [11] = assay: Antibacterial activity against Bacillus subtilis assessed as zone of inhibition at 10 mg/ml after 3 to 7 days by cup diffusion method; details: read-out: IZ
Escherichia coli [12] = assay: Antibacterial activity against Escherichia coli assessed as zone of inhibition at 10 mg/ml after 3 to 7 days by cup diffusion method; details: read-out: IZ
Pseudomonas aeruginosa [13] = assay: Antibacterial activity against Pseudomonas aeruginosa assessed as zone of inhibition at 10 mg/ml after 3 to 7 days by cup diffusion method; details: read-out: IZ
Mycolicibacterium phlei [14] = assay: Antibacterial activity against Mycobacterium phlei clinical isolate assessed as zone of inhibition at 10 mg/ml after 3 to 7 days by cup diffusion method; details: read-out: IZ
[15] = system: Aggregatibacter actinomycetemcomitans; assay: Antibacterial activity against Aggregatibacter actinomycetemcomitans ATCC 29524 assessed as zone of inhibition at 10 mg/ml after 3 to 7 days by cup diffusion method; details: read-out: IZ
[16] = Staphylococcus aureus, read-out: MIC
[17] = Bacillus subtilis, read-out: MIC
[18] = Escherichia coli, read-out: MIC
[19] = Pseudomonas aeruginosa, read-out: MIC
[20] = Mycolicibacterium phlei, read-out: MIC
[21] = Aggregatibacter actinomycetemcomitans, ATCC 29524, read-out: MIC

Row | SMILES | MIC (Escherichia coli [1]) | MIC (Pseudomonas aeruginosa [2]) | MIC (Staphylococcus aureus [3]) | MIC (Staphylococcus aureus [4]; [16]) | MIC (Bacillus subtilis [5]; [17]) | MIC (Escherichia coli [6]; [18]) | MIC (Pseudomonas aeruginosa [7]; [19]) | MIC (Mycolicibacterium phlei [8]; [20]) | MIC [9, 21] | zone of inhibition at 10000 µg/mL (Staphylococcus aureus [10]) | zone of inhibition at 10000 µg/mL (Bacillus subtilis [11]) | zone of inhibition at 10000 µg/mL (Escherichia coli [12]) | zone of inhibition at 10000 µg/mL (Pseudomonas aeruginosa [13]) | zone of inhibition at 10000 µg/mL (Mycolicibacterium phlei [14]) | zone of inhibition at 10000 µg/mL [15] | further results
1 | Cc1ccc2c(c1)c(-c1ccccc1)cc(=O)n2Cc1nnc(S)n1N | 8 to 256 µg/mL (≈ 22 to 704 µM) | 8 to 256 µg/mL (≈ 22 to 704 µM) | 8 to 256 µg/mL (≈ 22 to 704 µM) |  |  |  |  |  |  |  |  |  |  |  |  | 
2 | COc1cccc2c(-c3ccccc3)cc(=O)n(Cc3nnc(S)n3N)c12 | 8 to 256 µg/mL (≈ 21.1 to 675 µM) | 8 to 256 µg/mL (≈ 21.1 to 675 µM) | 8 to 256 µg/mL (≈ 21.1 to 675 µM) |  |  |  |  |  |  |  |  |  |  |  |  | 
3 | COc1ccc2c(c1)c(-c1ccccc1)cc(=O)n2Cc1nnc(S)n1N | 8 to 256 µg/mL (≈ 21.1 to 675 µM) | 8 to 256 µg/mL (≈ 21.1 to 675 µM) | 8 to 256 µg/mL (≈ 21.1 to 675 µM) |  |  |  |  |  |  |  |  |  |  |  |  | 
4 | Nn1c(S)nnc1Cn1c(=O)cc(-c2ccccc2)c2cccc(Cl)c21 | 8 to 256 µg/mL (≈ 20.8 to 667 µM) | 8 to 256 µg/mL (≈ 20.8 to 667 µM) | 8 to 256 µg/mL (≈ 20.8 to 667 µM) |  |  |  |  |  |  |  |  |  |  |  |  | 
5 | CCn1cc(-c2nc(NC(=O)CCl)n[nH]2)c(=O)c2cc(Br)c(C)nc21 |  |  |  | 3.68 to 6.3 µM (≈ 1.57 to 2.68 µg/mL) | 3.68 to 6.3 µM (≈ 1.57 to 2.68 µg/mL) | 3.68 to 6.3 µM (≈ 1.57 to 2.68 µg/mL) | 3.68 to 6.3 µM (≈ 1.57 to 2.68 µg/mL) | 3.68 to 6.3 µM (≈ 1.57 to 2.68 µg/mL) | 3.68 to 6.3 µM (≈ 1.57 to 2.68 µg/mL) | 20 to 40 mm | 20 to 40 mm | 20 to 40 mm | 20 to 40 mm | 20 to 40 mm | 20 to 40 mm | 
6 | CCn1cc(-c2nc(NC(=O)CCl)n[nH]2)c(=O)c2ccc(C)nc21 |  |  |  |  |  |  |  |  |  | 20 to 40 mm | 20 to 40 mm | 20 to 40 mm | 20 to 40 mm | 20 to 40 mm | 20 to 40 mm | MIC (Staphylococcus aureus [4]): >=0.031 - 32 ug ml-1; MIC (Bacillus subtilis [5]): >=0.031 - 32 ug ml-1; MIC (Escherichia coli [6]): >=0.031 - 32 ug ml-1; MIC (Pseudomonas aeruginosa [7]): >=0.031 - 32 ug ml-1; MIC (Mycolicibacterium phlei [8]): >=0.031 - 32 ug ml-1; MIC [9]: >=0.031 - 32 ug ml-1
7 | CCn1cc(-c2nc(/N=C/c3ccc(F)cc3)n[nH]2)c(=O)c2ccc(C)nc21 |  |  |  |  |  |  |  |  |  | 20 to 40 mm | 20 to 40 mm | 20 to 40 mm | 20 to 40 mm | 20 to 40 mm | 20 to 40 mm | MIC (Staphylococcus aureus [4]): >=0.031 - 32 ug ml-1; MIC (Bacillus subtilis [5]): >=0.031 - 32 ug ml-1; MIC (Escherichia coli [6]): >=0.031 - 32 ug ml-1; MIC (Pseudomonas aeruginosa [7]): >=0.031 - 32 ug ml-1; MIC (Mycolicibacterium phlei [8]): >=0.031 - 32 ug ml-1; MIC [9]: >=0.031 - 32 ug ml-1
8 | CCn1cc(-c2nc(/N=C/c3ccc(Cl)cc3)n[nH]2)c(=O)c2ccc(C)nc21 |  |  |  |  |  |  |  |  |  | 20 to 40 mm | 20 to 40 mm | 20 to 40 mm | 20 to 40 mm | 20 to 40 mm | 20 to 40 mm | MIC (Staphylococcus aureus [4]): >=0.031 - 32 ug ml-1; MIC (Bacillus subtilis [5]): >=0.031 - 32 ug ml-1; MIC (Escherichia coli [6]): >=0.031 - 32 ug ml-1; MIC (Pseudomonas aeruginosa [7]): >=0.031 - 32 ug ml-1; MIC (Mycolicibacterium phlei [8]): >=0.031 - 32 ug ml-1; MIC [9]: >=0.031 - 32 ug ml-1

Now from value to compound, other results behind:

Row | MIC (Escherichia coli [1]) | MIC (Pseudomonas aeruginosa [2]) | MIC (Staphylococcus aureus [3]) | MIC (Staphylococcus aureus [4]; [16]) | MIC (Bacillus subtilis [5]; [17]) | MIC (Escherichia coli [6]; [18]) | MIC (Pseudomonas aeruginosa [7]; [19]) | MIC (Mycolicibacterium phlei [8]; [20]) | MIC [9, 21] | SMILES | zone of inhibition at 10000 µg/mL (Staphylococcus aureus [10]) | zone of inhibition at 10000 µg/mL (Bacillus subtilis [11]) | zone of inhibition at 10000 µg/mL (Escherichia coli [12]) | zone of inhibition at 10000 µg/mL (Pseudomonas aeruginosa [13]) | zone of inhibition at 10000 µg/mL (Mycolicibacterium phlei [14]) | zone of inhibition at 10000 µg/mL [15] | further results
9 |  |  |  | 3.68 to 6.3 µM (≈ 1.68 to 2.87 µg/mL) | 3.68 to 6.3 µM (≈ 1.68 to 2.87 µg/mL) | 3.68 to 6.3 µM (≈ 1.68 to 2.87 µg/mL) | 3.68 to 6.3 µM (≈ 1.68 to 2.87 µg/mL) | 3.68 to 6.3 µM (≈ 1.68 to 2.87 µg/mL) | 3.68 to 6.3 µM (≈ 1.68 to 2.87 µg/mL) | CCn1cc(-c2nc(/N=C/c3ccc(F)cc3)n[nH]2)c(=O)c2cc(Br)c(C)nc21 | 20 to 40 mm | 20 to 40 mm | 20 to 40 mm | 20 to 40 mm | 20 to 40 mm | 20 to 40 mm | 
10 |  |  |  | 3.68 to 6.3 µM (≈ 1.79 to 3.07 µg/mL) | 3.68 to 6.3 µM (≈ 1.79 to 3.07 µg/mL) | 3.68 to 6.3 µM (≈ 1.79 to 3.07 µg/mL) | 3.68 to 6.3 µM (≈ 1.79 to 3.07 µg/mL) | 3.68 to 6.3 µM (≈ 1.79 to 3.07 µg/mL) | 3.68 to 6.3 µM (≈ 1.79 to 3.07 µg/mL) | CCn1cc(-c2nc(NC(=O)c3ccc(Cl)cc3)n[nH]2)c(=O)c2cc(Br)c(C)nc21 | 20 to 40 mm | 20 to 40 mm | 20 to 40 mm | 20 to 40 mm | 20 to 40 mm | 20 to 40 mm | 
11 |  |  |  | 3.68 to 6.3 µM (≈ 1.67 to 2.86 µg/mL) | 3.68 to 6.3 µM (≈ 1.67 to 2.86 µg/mL) | 3.68 to 6.3 µM (≈ 1.67 to 2.86 µg/mL) | 3.68 to 6.3 µM (≈ 1.67 to 2.86 µg/mL) | 3.68 to 6.3 µM (≈ 1.67 to 2.86 µg/mL) | 3.68 to 6.3 µM (≈ 1.67 to 2.86 µg/mL) | CCn1cc(-c2nc(/N=C/c3ccccc3O)n[nH]2)c(=O)c2cc(Br)c(C)nc21 | 20 to 40 mm | 20 to 40 mm | 20 to 40 mm | 20 to 40 mm | 20 to 40 mm | 20 to 40 mm | 
